Like-named read-outs stand apart in the source and are kept apart here.
Experiments:
[1] = target: K-Ras^G12C : hSOS1 interaction (Homo sapiens, UniProt Q07889); assay: Biochemical assay 1: K-Ras^G12C interaction assay with hSOS1 (HTRF); type: binding
[2] = target: human SOS1 (loading of human K-Ras^G12C-GDP with fluorescent GTP-analog) (Homo sapiens, UniProt Q07889); assay: Biochemical assay 3: K-Ras^G12C activation assay by hSOS1 (HTRF)
[3] = target: Epidermal Growth Factor Receptor (EGFR) (Homo sapiens (Human), UniProt P00533); assay: EGFR kinase assay (TR-FRET); type: biochemical
Epidermal Growth Factor Receptor (EGFR), sequence (P00533 25-1210): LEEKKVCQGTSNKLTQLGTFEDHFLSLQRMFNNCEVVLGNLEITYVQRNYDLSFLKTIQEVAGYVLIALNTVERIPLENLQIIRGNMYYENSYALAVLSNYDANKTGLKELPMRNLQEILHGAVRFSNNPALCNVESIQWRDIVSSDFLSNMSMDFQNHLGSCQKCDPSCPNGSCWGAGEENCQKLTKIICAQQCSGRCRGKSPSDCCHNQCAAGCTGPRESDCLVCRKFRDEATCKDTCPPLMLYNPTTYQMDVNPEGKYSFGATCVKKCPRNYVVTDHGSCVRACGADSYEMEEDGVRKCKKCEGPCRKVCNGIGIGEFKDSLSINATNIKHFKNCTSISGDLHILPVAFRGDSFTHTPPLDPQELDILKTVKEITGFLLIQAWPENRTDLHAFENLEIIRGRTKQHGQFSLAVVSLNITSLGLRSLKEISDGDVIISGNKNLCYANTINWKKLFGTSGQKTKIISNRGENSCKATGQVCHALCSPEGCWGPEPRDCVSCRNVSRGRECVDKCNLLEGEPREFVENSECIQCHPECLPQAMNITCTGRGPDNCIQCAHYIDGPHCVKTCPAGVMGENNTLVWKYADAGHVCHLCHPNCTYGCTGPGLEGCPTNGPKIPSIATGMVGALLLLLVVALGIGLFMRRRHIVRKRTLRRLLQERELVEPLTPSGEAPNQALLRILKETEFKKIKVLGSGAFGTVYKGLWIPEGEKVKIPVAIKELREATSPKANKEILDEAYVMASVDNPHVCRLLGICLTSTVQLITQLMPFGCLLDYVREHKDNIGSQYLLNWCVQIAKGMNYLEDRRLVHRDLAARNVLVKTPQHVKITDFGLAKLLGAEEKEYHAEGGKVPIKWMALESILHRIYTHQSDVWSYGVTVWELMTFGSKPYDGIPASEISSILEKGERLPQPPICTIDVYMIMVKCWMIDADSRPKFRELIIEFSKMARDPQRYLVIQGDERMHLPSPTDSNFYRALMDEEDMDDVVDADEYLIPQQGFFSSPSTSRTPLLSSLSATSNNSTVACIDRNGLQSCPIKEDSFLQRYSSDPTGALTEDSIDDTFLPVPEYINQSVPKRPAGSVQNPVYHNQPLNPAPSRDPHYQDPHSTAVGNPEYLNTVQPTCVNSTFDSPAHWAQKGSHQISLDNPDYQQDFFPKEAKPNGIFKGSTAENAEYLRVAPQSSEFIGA
Description: EGFR inhibitory activity of compounds of the present invention was quantified employing the TR-FRET based EGFR assay as described in the following paragraphs.
Epidermal Growth Factor Receptor (EGFR) affinity purified from human carcinoma A431 cells (Sigma-Aldrich, #E3641) was used as kinase. As substrate for the kinase reaction the biotinylated peptide biotin-Ahx-[…] (SEQ ID NO 5) (C-terminus in amid form) was used which can be purchased e.g. form the company Biosyntan GmbH (Berlin-Buch, Germany).
For the assay 50 nL of a 100 fold concentrated solution of the test compound in DMSO was pipetted into a black low volume 384 well microtiter plate (Greiner Bio-One, Frickenhausen, Germany), 2 μL of a solution of EGFR in aqueous assay buffer [50 mM Hepes/HCl pH 7.0, 1 mM MgCl2, 5 mM MnCl2, 0.5 mM activated sodium ortho-vanadate, 0.005% (v/v) Tween-20]were added and the mixture was incubated for 15 min at 22° C. to allow pre-binding of the test compounds to the enzyme before the start of the kinase reaction. […] The concentration of EGFR was adjusted depending of the activity of the enzyme lot and was chosen appropriate to have the assay in the linear range, typical concentration were about 3 U/ml. The reaction was stopped by the addition of 5 μl of a solution of HTRF detection reagents (0.1 μM streptavidine-XL665 [Cis Biointernational] and 1 nM PT66-Tb-Cryptate, an terbium-cryptate labelled anti-phospho-tyrosine antibody from Cis Biointernational [instead of the PT66-Tb-cryptate PT66-Eu-Chelate from Perkin Elmer can also be used]) in an aqueous EDTA-solution (80 mM EDTA, 0.2% (w/v) bovine serum albumin in 50 mM HEPES pH 7.5).
The resulting mixture was incubated 1 h at 22° C. to allow the binding of the biotinylated phosphorylated peptide to the streptavidine-XL665 and the PT66-Eu-Chelate. Subsequently the amount of phosphorylated substrate was evaluated by measurement of the resonance energy transfer from the PT66-Tb-Cryptate to the streptavidine-XL665. Therefore, the fluorescence emissions at 620 nm and 665 nm after excitation at 337 nm were measured in a HTRF reader, e.g. a Pherastar (BMG Labtechnologies, Offenburg, Germany) or a Viewlux (Perkin-Elmer). The ratio of the emissions at 665 nm and at […] was taken as the measure for the amount of phosphorylated substrate.

[4] = target: human SOS1 (nucleotide exchange of K-Ras^G12C) (Homo sapiens, UniProt Q07889); assay: Biochemical assay 2: K-Ras^G12C activation assay by hSOS1 at high GTP concentration (HTRF); settings: E-notation values; unit inferred; 50 μM GTP; read-out: Assay 2 (KRAS-Activation, high GTP) IC50
[5] = read-out: Assay 1 (KRAS-SOS Interaction) activity expressed as IC50
[6] = values given in μM, read-out: EGFR kinase inhibition IC50
[7] = no GTP, read-out: Assay 3 (KRAS-Activation by SOS no GTP) activity expressed as IC50
[8] = E-notation values, unit inferred, read-out: EGFR-assay IC50
[9] = E-notation values, unit inferred, read-out: Assay 3 (KRAS-Activation) IC50

Structure (SMILES): COc1cc2nc(C)nc(NC(C)c3ccc(Br)o3)c2cc1OC (stereo not drawn) [Example 208, N-[1-(5-bromofuran-2-yl)ethyl]-6,7-dimethoxy-2-methylquinazolin-4-amine]
- IC50 [1, 5]: 5.97 µM
- inhibition at 20 µM ([2]; read-out: Assay 3 (KRAS-Activation by SOS no GTP) activity expressed as % inhibition at 20 μM, no GTP, at 20 μM): 47%
- IC50 [3, 6]: > 20 µM

Structure (SMILES): COc1cc2nc(C)nc(NC(C)c3ccc(Br)s3)c2cc1OC (stereo not drawn) [Example 209, N-[1-(5-bromothiophen-2-yl)ethyl]-6,7-dimethoxy-2-methylquinazolin-4-amine]
- IC50 [1, 5]: 1.08 µM
- IC50 [2, 7]: 4.95 µM
- IC50 [3, 6]: > 20 µM

Structure (SMILES): COc1cc2nc(C)nc(NC(C)c3cccc4ncccc34)c2cc1OC (stereo not drawn) [Example 212, 6,7-dimethoxy-2-methyl-N-[1-(quinolin-5-yl)ethyl]quinazolin-4-amine]
- IC50 [1, 5]: 0.646 µM
- IC50 [2, 7]: 2.64 µM
- IC50 [3, 6]: > 20 µM

Structure (SMILES): Cc1nc(NC(C)c2ccc(-c3ccccc3CN(C)C)s2)c2cc([N+](=O)[O-])ccc2n1 (stereo not drawn) [Example 421, N-[1-(5-{2-[(dimethylamino)methyl]phenyl}thiophen-2-yl)ethyl]-2-methyl-6-nitroquinazolin-4-amine]
- IC50 ([1]; E-notation values, unit inferred, read-out: Assay 1 (KRAS-SOS interaction) IC50): 0.145 µM
- IC50 [4]: 0.222 µM
- IC50 [3, 8]: > 20 µM

Structure (SMILES): COc1cc2nc(C)nc(N[C@H](C)c3cccc(-c4cn[nH]c4)c3)c2cc1OCCS(C)(=O)=O [Example 448, 7-methoxy-2-methyl-6-[2-(methylsulfonyl)ethoxy]-N-{(1R)-1-[3-(1H-pyrazol-4-yl)phenyl]ethyl}quinazolin-4-amine]
- IC50 [4]: > 20 µM
- IC50 [2, 9]: > 20 µM
- IC50 [3, 8]: > 20 µM

Structure (SMILES): COc1cc2nc(C)nc(NC(C)c3ccc(-c4ccc(Cl)cc4CNC(=O)OC(C)(C)C)s3)c2cc1OC (stereo not drawn) [Example 449, tert-butyl [5-chloro-2-(5-{1-[(6,7-dimethoxy-2-methylquinazolin-4-yl)amino]ethyl}thiophen-2-yl)benzyl]carbamate]
- IC50 [4]: > 20 µM
- IC50 [2, 9]: > 20 µM
- IC50 [3, 8]: > 20 µM

Structure (SMILES): COc1cc2nc(C)nc(NC(C)c3ccc(-c4cccc(Cl)c4CNC(=O)OC(C)(C)C)s3)c2cc1OC (stereo not drawn) [Example 450, tert-butyl [2-chloro-6-(5-{1-[(6,7-dimethoxy-2-methylquinazolin-4-yl)amino]ethyl}-thiophen-2-yl)benzyl]carbamate]
- IC50 [4]: > 20 µM
- IC50 [2, 9]: > 20 µM
- IC50 [3, 8]: > 20 µM

Structure (SMILES): Cc1nc(N[C@H](C)c2cccc(Cl)c2)c2ccc(Br)cc2n1 [Example 451, 7-bromo-N-[(1R)-1-(3-chlorophenyl)ethyl]-2-methylquinazolin-4-amine]
- IC50 [4]: > 20 µM
- IC50 [2, 9]: > 20 µM
- IC50 [3, 8]: > 20 µM

Structure (SMILES): Cc1nc(NC(C)c2ccc(Br)s2)c2cc([N+](=O)[O-])ccc2n1 (stereo not drawn) [Example 452, N-[1-(5-bromothiophen-2-yl)ethyl]-2-methyl-6-nitroquinazolin-4-amine]
- IC50 [4]: > 20 µM
- IC50 [2, 9]: > 20 µM
- IC50 [3, 8]: > 20 µM

Structure (SMILES): COC(=O)c1ccc2c(N[C@H](C)c3cccc(Cl)c3)nc(C)nc2c1 [Example 453, methyl 4-{[(1R)-1-(3-chlorophenyl)ethyl]amino}-2-methylquinazoline-7-carboxylate]
- IC50 [4]: > 20 µM
- IC50 [2, 9]: > 20 µM
- IC50 [3, 8]: > 20 µM

From US20240083857A1, “2-Methyl-Quinazolines” (Bayer Pharma Aktiengesellschaft, priority 2017, published 2024)
